Values quoted from earlier work as cited in patent CN102406622A, “一种托伐普坦的固体制剂” (Zhejiang Huahai Pharmaceutical Co Ltd, priority 2011, dated 2012).

Settings: low solubility, low permeability

BCS class: IV类药
SMILES: Cc1ccccc1C(=O)Nc1ccc(C(=O)N2CCC[C@@H](O)c3cc(Cl)ccc32)c(C)c1 [托伐普坦, N-[4-[(5R)-7-氯-5-羟基-2,3,4,5-四氢-1-苯并氮杂卓-1-甲酰基]-3-甲基苯基]-2-甲基苯甲酰胺]
